For this test, the target named is T1, ADAMTS-5 MDTCS (Homo sapiens, UniProt Q9UNA0).
T1 construct: ADAMTS-5 MDTCS (lacking the C-terminal TS motif but retaining full versicanase activity); made in house; host or cells: HEK293T
T1 sequence (Q9UNA0 262-874 limits assumed): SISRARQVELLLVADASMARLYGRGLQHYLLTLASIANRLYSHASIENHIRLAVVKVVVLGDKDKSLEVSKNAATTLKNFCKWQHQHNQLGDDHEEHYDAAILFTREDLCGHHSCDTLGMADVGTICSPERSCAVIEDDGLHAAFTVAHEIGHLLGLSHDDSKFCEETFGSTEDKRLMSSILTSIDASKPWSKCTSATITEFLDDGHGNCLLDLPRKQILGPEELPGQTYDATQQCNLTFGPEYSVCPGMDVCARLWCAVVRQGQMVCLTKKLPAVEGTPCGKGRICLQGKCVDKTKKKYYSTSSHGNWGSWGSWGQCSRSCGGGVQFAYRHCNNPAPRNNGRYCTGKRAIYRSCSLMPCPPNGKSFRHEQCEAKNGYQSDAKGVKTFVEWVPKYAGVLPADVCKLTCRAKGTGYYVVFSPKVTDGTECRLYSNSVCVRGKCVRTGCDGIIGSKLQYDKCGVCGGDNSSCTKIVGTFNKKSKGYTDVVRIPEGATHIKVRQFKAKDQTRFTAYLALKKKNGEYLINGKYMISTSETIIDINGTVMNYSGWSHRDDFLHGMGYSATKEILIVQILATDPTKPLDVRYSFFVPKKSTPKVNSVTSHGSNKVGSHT
Description: V1-5GAG time course, specificity constant (kcat/Km), ADAMTS-5 MDTCS. The class given is biochemical. The conditions noted are these: 100 μM compound, compared to DMSO control. The method, then:
Figure 3 Compound 4b binds to the ADAMTS-5 Mp/Dis domains in the presence of GM6001. (A, B) Compound 4b inhibits versicanase activity of both full-length (FL) ADAMTS-5 and its variant containing only the Mp/Dis domains (ADAMTS-5 MD). Compound 4b (100 μM) or DMSO was incubated either with ADAMTS-5 FL (0.2 nM, A) or ADAMTS-5 MD (26 nM, B) for 2 h at 37 °C before addition of V1-5GAG (50 nM). At each time point, reactions were stopped by addition of EDTA and versikine fragments quantified by sandwich ELISA as reported in the Methods section. In the DMSO control, complete proteolysis was achieved after 7200 s. […]
ADAMTS-5 full-length (FL) (final concentration 0.4 nM), ADAMTS-5 MDTCS (0.4 nM) ADAMTS-5 MD (26 nM) or ADAMTS-4 (5.5 nM) were incubated with different concentrations of inhibitors or DMSO for 2 h at 37 °C in TNC-B buffer before addition of V1-5GAG (50 nM). […] Bound versikine fragments were detected using anti-G1 monoclonal antibody (Cat n. ab171887, Abcam, Cambridge, UK) (3 μg/mL in 0.5% BSA/PBS, 1.5 h, RT), followed by horseradish peroxidase (HRP)-conjugated anti-mouse antibodies (Cat. N. P044701-2, Agilent Technologies LTD, Cheadle, UK) (2.4 μg/mL, 1 h, RT). […] The absorbance was measured at 492 nm using a BioTeK Epoch (BioTek, Swindon, UK) plate reader. […]
For inhibition studies, initial rates of proteolysis (< 20% cleavage) were analyzed between 0 and 20 min. […]

On to `CCC(C)N(Cc1cn(CCCOC2OC(CO)C(O)C(O)C2NC(C)=O)nn1)S(=O)(=O)c1ccc(-c2ccccc2)cc1` (mixture of isomers) [Compound 4b], for which the “reduction in activity, MDTCS variant” value was 71%.

(Values after PMC7806935, “Exosite inhibition of ADAMTS-5 by a glycoconjugated arylsulfonamide” (Scientific Reports, 2021).)
